# Laboratory results as given in patent US4803167A, “Monoclonal antidigoxtin antibodies” (The General Hospital Corporation, priority 1982, dated 1989).
# How the values were obtained:
# Assay in all cases: Specificity determination, inhibition of [3H]digoxin binding in dextran charcoal RIA
# Conditions in all cases: inhibition of antibody binding to [3H]digoxin
# [1] = test system: monoclonal anti-digoxin antibody Dig 26-10; design: species or system mouse (A/J)
# Method: (§1) The specificity of each antidigoxin antibody for related cardiac glycosides was assessed by the inhibition of binding of antibody in the dextran charcoal radioimmunoassay Smith (1972), supra. To a constant amount of H^3 -digoxin (1.5 ng) in 1 ml of buffer is added different amounts ([…]) of various cardiac glycosides: digoxin, digitoxin, digitoxigenin, digoxigenin, acetyl-strophanthidin, ouabain, deslanoside, and endogenous steroids such as chloresterol, cortisol, androsterone, 17-[beta]-estradiol, progesterone, and testosterone. After 5 minutes, a constant amount of anti-digoxin antibody was added and the assay was continued as described above. Comparison among different antidigoxin antibodies with respect to their fine specificity was made by determining the amount of cardiac glycoside required to achieve 50% inhibition relative to that required for cold digoxin.
# (§2) Specificity of monoclonal antibody binding site for related cardiac glycosides was examined by means of hapten inhibition experiments in which the binding of monoclonal antibody to H^3 -digoxin was inhibited by cold digoxin and related cardiac glycosides.
# [2] = test system: monoclonal anti-digoxin antibody Dig 26-20; design: species or system mouse (A/J)
# Method: as §1, §2
# [3] = test system: monoclonal anti-digoxin antibody Dig 26-30; design: species or system mouse (A/J)
# Method: as §1, §2
# [4] = test system: monoclonal anti-digoxin antibody Dig 26-40; design: species or system mouse (A/J)
# Method: as §1, §2
# [5] = test system: monoclonal anti-digoxin antibody Dig 25-54; design: species or system mouse (A/J)
# Method: as §1, §2
# [6] = test system: monoclonal anti-digoxin antibody Dig 35-20; design: species or system mouse (A/J)
# Method: as §1, §2
# [7] = test system: Sheep Anti-Dig Serum (heterogeneous anti-digoxin antiserum)
# Method: Antisera specific for digoxin was prepared in sheep as previously described by Curd et al, Proc. Nat. Acad. Sci. 65: 2401 (1971). High affinity antidigoxin sheep antisera was used in the clinical RIA for digoxin (described below).
# as §1, §2
smiles,measurement,setting,value
C[C@@H]1O[C@@H](O[C@H]2C[C@@H](O)[C@]3(CO)[C@H]4[C@H](O)C[C@]5(C)[C@@H](C6=CC(=O)OC6)CC[C@]5(O)[C@@H]4CC[C@]3(O)C2)[C@H](O)[C@H](O)[C@H]1O [Ouabain],amount of inhibitor required to give 50% inhibition relative to the amount of digoxin which gave 50% inhibition,[1],66
same,amount of inhibitor required to give 50% inhibition relative to the amount of digoxin which gave 50% inhibition,[2],53
same,amount of inhibitor required to give 50% inhibition relative to the amount of digoxin which gave 50% inhibition,[3],84
same,amount of inhibitor required to give 50% inhibition relative to the amount of digoxin which gave 50% inhibition,[4],78
same,amount of inhibitor required to give 50% inhibition relative to the amount of digoxin which gave 50% inhibition,[5],> 100
same,amount of inhibitor required to give 50% inhibition relative to the amount of digoxin which gave 50% inhibition,[6],333
same,amount of inhibitor required to give 50% inhibition relative to the amount of digoxin which gave 50% inhibition,[7],> 10^5
